# Legend:
# goblet cell hyperplasia = test: Lung histopathology (PAS), goblet cell hyperplasia score; format: in vivo, BALB/c mouse; details: eIN+mIT+eIN group (CMP days 1 to 22)
# Text: FIG. 4 illustrates experimental design. All groups except control group were immunized with mite crude extract allergen on days 1 and 8, then mite crude extract allergen intratracheally on day 15 in all mite treated group, BALB/c mouse were divided into six groups (1) control group (PBS), (2) mites delivered intratracheally (mIT, mite on day 15) alone, (3) CMP intranasal (eIN, CMP on days 1 to 22) alone, (4) preventive-treatment group (eIN+mIT, CMP on days 1 to 14, mite on day 15) (5) therapy-treatment group (mIT+eIN, mite on day 15, CMP on days 15 to 22), and (6) preventive- and therapeutic-treatment group (eIN+mIT+eIN, CMP on days 1 to 22, mite on day 15).
# FIG. 6A-6B illustrates inhibitory effect of CMP on influx of inflammatory cells. […] (A) Scores for peri-bronchiolar, alveolar inflammation and (B) PAS were determined based on the histological sections. Each result was expressed as the mean±S.D., n=4. ***, P<0.001. […]
# The formalin-fixed lung sections stained with hematoxylin and eosin (H&E) were assigned a unit value for alveolar, peri-bronchiolar, and total inflammation by computing the means of three independent scores for three randomly selected fields. […] For evaluating the hyperplasia goblet cells, medium-sized airways were assessed in sections stained with periodic acid-Schiff (PAS) stain. Two reviewers independently and randomly scored 10 fields of each slide. […]
# human CCL11 = test: CCL11 protein release from Beas-2B cells by ELISA; format: cell-based; details: Beas-2B cells, 24 h
# Procedure: FIG. 2 illustrates CCL11 expression in CMP and ECP co-treated Beas-2B cells. Beas-2B cells were starved with serum free medium for 24 h, followed by stimulation with ECP (column 2). Cells were stimulated with PBS as negative control (column 1) and ECP in the absence of CMP (column 2) or presence of 1 μM (column 3), 2.5 μM (column 4), 5 μM (column 5), 10 μM (column 6) CMP at 37° C. for 24 h. CCL11 protein level was determined by ELISA kit employing CCL11 antibody. The data represented mean±SD (standard deviation) of at least three independent experiments. ***, p<0.001; **, p<0.01
# FIG. 3 illustrates CCL11 expression in CMP and IL-4 co-treated Beas-2B cells. Beas-2B cells were starved with serum free medium for 24 h, followed by stimulation with PBS (column 1) or 10 ng/mL IL-4 (column 2-7). Cells were stimulated with 10 ng/mL IL-4 in the absence […] or presence of 1 μM (column 3), 2.5 μM (column 4), 5 μM (column 5) and 10 μM (column 6) CMP at 37° C. for 24 h. CCL11 protein level was determined by ELISA kit employing CCL11 antibody. The data represented mean±SD (standard deviation) of at least three independent experiments. ***, p<0.001 (Stimulation with IL-4 compared with PBS treated Beas-2B cells). *, p<0.05 (Stimulation with indicated concentrations of CMP compared with IL-4 treated Beas-2B cells).
# CCL11 ELISA kit (R&D) is an in vitro enzyme-linked immunosorbent assay for quantitative determination of human CCL11 concentration in cell culture supernatants. This assay employed an antibody specific for human CCL11 coated on a 96-well plate. The wells were incubated with 50 μL standard or sample for 2.5 hours at room temperature. After washing with 1× wash solution five times, 200 μL of CCL11 conjugate were added into each wells for 1 h. After washing, 100 μL TMB One-Step Substrate Reagent were added into each wells at room temperature for 30 minutes. 50 μL of Stop Solution were added into each wells and read at 450 nm by spectrophotometer immediately. Limit of detection in the assay was 5 pg/mL.
# To investigate whether CMP influenced ECP-mediated CCL11 expression, Beas-2B cells were separately stimulated with 5 μM ECP in the absence of CMP and in the presence of 1 μM, 2.5 μM, 5 μM and 10 μM CMP at 37° C. for 24 h.
# To further investigate whether CMP influenced CCL11 production from other stimulation in Beas-2B cells, serum-deprived Beas-2B cells were stimulated with 10 ng/mL IL-4, a dominant cytokine regulating CCL11, alone or in the presence of CMP at concentrations 1, 2.5, 5 and 10 μM at 37° C. for 24 h.
sequence,measurement,setting,value
NYRWRCKNQN (CMP),score of goblet cell hyperplasia compared with mIT group,goblet cell hyperplasia,lower score
same,"release of CCL11 induced by IL-4, reduced to",human CCL11; 10 ng/mL IL-4 with 5 μM CMP,48.1 pg/mL
same,"release of CCL11 induced by IL-4, reduced to",human CCL11; 10 ng/mL IL-4 with 10 μM CMP,30.2 pg/mL
same,CCL11 production induced by IL-4,human CCL11; 10 ng/mL IL-4 with 1 or 2.5 μM CMP,did not reduce
same,"CCL11 induced by ECP, reduced to",human CCL11; 5 μM ECP and 5 μM CMP,7.55 pg/mL
same,"CCL11 induced by ECP, reduced to",human CCL11; 5 μM ECP and 10 μM CMP,8.94 pg/mL
same,ECP-mediated CCL11 production,human CCL11; 5 μM ECP and 1 or 2.5 μM CMP,did not reduce
